The source of these data is patent US7307166B1, “Oxpurine nucleosides and their congeners, and acyl, derivatives thereof, for improvement of hematopoiesis” (Wellstat Therapeutics Corporation, priority 1987, dated 2007).

In assay [1] the test system is mouse bone marrow cells in culture. Conditions: under stimulatory influence of serum from endotoxin-treated mice; cited from earlier work.
Assay [2] relates to Balb/C female mice. Kind of assay: Hematopoietic recovery after cyclophosphamide in mice (spleen weight, blood cell counts). Type of assay: in vivo, mouse.
For assay [3], the system named is Balb/C female mice. The description is as above. The assay is classed as in vivo, mouse. Conditions: for Neutrophils / peripheral total white blood cells: Ex 37: day 7 after CP, 5 μmoles/mouse/day i.p. 6 days, vs saline. How it is done: Twenty-four hours later and each day thereafter for a total of 6 days, mice were given a 0.4 ml i.p. injection of either physiological saline (controls), guanine (5 μmoles/mouse/day), or guanosine (5 μmoles/mouse/day). On day 7 all 10 mice in each of the three groups were bled, and then sacrificed by cervical dislocation. Spleens were removed and weighed, and complete blood cell counts performed.
Twenty-four hours later and each day thereafter for a total of 6 days, mice were given a 0.4 ml i.p injection of either physiological saline (controls), Tween 80 (0.2%), guanosine (5 μmoles/mouse/day in 0.2% Tween 80), or 2.5 μmoles per mouse per day of one of the following acylated derivatives of guanosine in 0.2% Tween 80: triacetylguanosine, octanoylguanosine, lauroylguanosine, or palmitoylguanosine. On day 7 following CP administration all 10 animals from each of the 7 groups were bled, and then sacrificed by cervical dislocation. Spleens were removed and weighed, and complete blood counts performed.
Twenty-four hours later treatment was begun. Mice were given a 0.4 ml i.p. injection of either physiological saline (controls), Tween 80 (0.2%), or palmitoylguanosine (5 μmoles/mouse/day in 0.2% Tween 80). The timing of the treatments was varied within the groups. The control group was given saline on days 1-6. The mice receiving Tween 80 were treated either on days 1-4, 4-6 or 1-6. Palmitoylguanosine-treated mice were treated either on days 1-2, 1-4, 3-5, 4-6 or 1-6. If a group of mice received no Tween 80 or palmitoylguanosine on a given day, saline was administered by i.p. injection. Thus, there were 9 groups of 9 animals in all. On day 7 following CP administration all of the animals were bled and then sacrificed by cervical dislocation. Spleens were removed and weighed, and complete blood cell counts performed.
Twenty-four hours later and each day thereafter for a total of 6 days, mice were given a 0.4 ml i.p. injection of either physiological saline (controls), Tween 80 (0.5%), or one of three different doses of octanoylguanosine (0.5, 2.5, or 5 μmoles/mouse/day in 0.5% Tween 80). On day 7 following CP administration all 9 animals from each of the […] were bled and then sacrificed by cervical dislocation. Spleens were removed and weighed, and complete blood cell counts performed.
Twenty-four hours later and each day thereafter for a total of 6 days, mice were given a 0.4 ml i.p. injection of either physiological saline (controls), Tween 80 (0.5%), or octanoylguanosine (5.0 μmoles/mouse/day in 0.5% Tween 80). On day 7 following CP administration all 10 animals from each of the 3 groups were bled and then sacrificed by cervical dislocation. Spleens were removed, weighed, and fixed in 10% formalin for later histological examination. Complete blood cell counts were performed on the collected blood.
Twenty-four hours later and each day thereafter for a total of 6 days, mice were given a 0.4 ml i.p. injection of either physiological saline (controls), benzoylguanosine (2.5 μmoles/mouse/day in 0.2% Tween 80), or palmitoylguanosine (2.5 μmoles/mouse/day in 0.2% Tween 80). On days 7 and 10 following CP administration 8 animals from each of the 3 groups were bled and then were sacrificed by cervical dislocation. Spleens were removed and weighed, and complete blood cell counts performed.
Twenty four hours later and each day thereafter for a total of 4 or 6 days, mice were given a 0.4 ml i.p. injection of either physiological saline (controls), palmitoyldeoxyinosine (2.5 μmoles/mouse), or palmitoyl-xanthosine (2.5 μmoles/mouse). On days 5 and 7 following CP administration 6 of the 12 animals in each of the 3 groups were bled and then sacrificed by cervical dislocation. Spleens were removed and weighed, and complete blood cell counts performed.

Assay [4] has as its system human myeloid leukemia cell line (HL-60). Conditions: incubation of HL-60 cells; cited from earlier work.
In assay [5] the test system is F344 male rats. Kind of assay: Recovery of blood cell counts in rats after cyclophosphamide. The assay is classed as in vivo, rat. How it is done: Cyclophosphamide (CP) (40 mg/kg, i.p.) was administered to 16 F344 male rats weighing approximately 200 grams each. Twenty-four hours later and each day thereafter rats were given a 0.5 ml i.p. injection of either physiological saline (controls), or palmitoyldeoxyguanosine at a dose of 10 μmoles/rat. On days 5, 7 and 10 following CP administration all 8 animals from both groups were bled and complete blood cell counts performed. On day 10 all of the rats were sacrificed and their spleens removed and weighed.

The test system of assay [6] is Balb/C female mice. Kind of assay: Hematopoietic recovery after 5-fluorouracil in mice. The assay is classed as in vivo, mouse. How it is done: 5-fluorouracil (5-FU) (150 mg/kg, i.p.) was administered to forty Balb/C female mice weighing approximately 20 grams each. Twenty-four hours later and each day thereafter for a total of 8 days, mice were given a 0.4 ml i.p. injection of either physiological saline (controls) or 5′-O-palmitoylguanosine (2.5 μmoles/mouse/day in 0.2% Tween 80). On days 7 and 14 following 5-FU administration half of the animals from each group were bled and then were sacrificed by cervical dislocation. Spleens were removed and weighed, and complete blood cells counts performed.
5-fluorouracil (5-FU) (150 mg/kg, i.p.) was administered to fifty-four Balb/C female mice weighing approximately 20 grams each. Twenty-four hours later and each day thereafter for a total of 7 days, mice were given a 0.4 ml i.p. injection of either physiological saline (controls) or palmitoylguanosine (2.5 μmoles/mouse/day in 0.2% Tween 80). On days 8, 10 and 12 following administration of 5-FU nine animals from each group were bled and then sacrificed by cervical dislocation. Spleens were removed and weighed, and complete blood cell counts performed.
Twenty-eight female Balb/C mice weighing approximately 20 grams each received a 0.4 ml i.p. injection of either physiological saline (controls), or palmitoyldeoxyguanosine (1 μmole/mouse) daily for three days. On the fourth day 5-fluorouracil (5-FU) (150 mg/kg, i.p.) was administered to all 28 of the animals. On days 5, 8 and 11 following 5-FU administration 4 (day 5) or 5 (days 8 and 11) animals from both groups were bled and then sacrificed by cervical dislocation. Spleens were removed and weighed, and complete blood cell counts performed. […]
Sixty female Balb/C mice weighing approximately 20 grams each were distributed into one of five treatment groups and treated once daily for three days by i.p. injection with 3′,5′-O—N^2-tripalmitoyl-2′-deoxyguanosine at a dose of either 1, 5, 10, 25, or 50 mg/kg/treatment in a Tween-DMSO vehicle (0.2% Tween-80 and 7.5% DMSO in physiological saline). Injection volume was 0.4 ml. An additional twelve animals (controls) received vehicle alone on those three days. On the fourth day all seventy-two animals received a single i.p. injection of 5-fluorouracil (5-FU) at a dose of 150 mg/kg. On days 7 and 10 following 5-FU administration six mice from each group were bled and then sacrificed by cervical dislocation. Six untreated mice were also bled and sacrificed to provide data on normal (basal) values. Spleens were removed and weighed, and complete blood cell counts performed.

In assay [7] the test system is Normal Balb/C female mice. Kind of assay: Hematopoiesis in normal mice. Type of assay: in vivo, mouse. Conditions: Ex 56: fifth day. How it is done:
Normal, otherwise untreated, female Balb/C mice weighing approximately 20 grams each received a total of 4 or 9 0.4 ml intraperitoneal injections (one per day) of either Tween-80 (0.2%) (controls), palmitoylguanosine ([…]), or palmitoyldeoxyinosine ([…]). Twenty-four hours after the 4th or 9th treatment, groups of 5 or 6 animals from each of the 3 groups were bled and then sacrificed by cervical dislocation. Spleens were removed and weighed, and complete blood cell counts performed.
Normal Balb/C female mice weighing approximately 20 grams each were given a daily 0.4 ml i.p. injection of either physiological saline (controls), palmitoylguanosine (2.6 μmoles/mouse), palmitoyldeoxyguanosine (2.6 μmoles/mouse), monopalmitoylguanosine 2′,3′-acyclic dialcohol (2.6 μmoles/mouse), and palmitoyl-8-bromoguanosine (2.6 μmoles/mouse) for 4 days. On the fifth day all 3 animals in each of the 5 groups were bled and then sacrificed by cervical dislocation. Spleens were removed and weighed, and complete blood cell counts performed. Femoral bone marrow from each mouse was collected and a differential cell count performed on marrow smears.

The test system of assay [8] is rabbits treated with cyclophosphamide. Conditions: rabbit, in vivo; cited from earlier work.
Setting [9] is: Ex 37: day 7 after CP 275 mg/kg i.p., 5 μmoles/mouse/day i.p. 6 days, vs saline.
The mark [10] stands for this setting: Ex 51: day 5 after CP, 2 μmoles/mouse.
Setting [11] is: Ex 52: days 5 and 7 after CP, 0.2-2.0 μmoles/mouse, except 0.2 on day 5.
Setting [12] is: Ex 53: day 5 after CP, palmitoylguanosine 2.0, palmitoyldeoxyguanosine 1.0 μmoles/mouse.
[13] abbreviates: Ex 53: day 7 after CP, palmitoylguanosine 1.0 and 2.0, palmitoyldeoxyguanosine 1.0 μmoles/mouse.
The mark [14] stands for this setting: Ex 57: day 8 after 5-FU, pretreatment.
Setting [15] is: Ex 57: day 11 after 5-FU, pretreatment.

`Nc1nc2c(ncn2[C@@H]2O[C@H](COP(=O)(O)O)[C@@H](O)[C@H]2O)c(=O)[nH]1` [5′-guanosine monophosphate]: the “number of colonies formed” value in assay [1] was “inactive”.

On to `Nc1nc2c(ncn2[C@@H]2O[C@@H]3COP(=O)(O)O[C@H]3[C@H]2O)c(=O)[nH]1` [cGMP, 3′,5′-cyclic guanosine monophosphate], for which the “number of colonies formed” value in assay [1] is “increase”.

As to `Nc1nc2nc[nH]c2c(=O)[nH]1` [guanine], the spleen weight result in assay [2] (setting [9]) is on record as “significantly heavier spleens”. Besides, in assay [3], the Neutrophils entry is recorded as “significantly more” and the “peripheral total white blood cells” value is “significantly more”. The “induced maturation into functional neutrophils” value in assay [4] is reported as “prevented”.

Regarding `Nc1nc2c(ncn2[C@@H]2O[C@H](CO)[C@@H](O)[C@H]2O)c(=O)[nH]1` [guanosine], the spleen weight entry in assay [2] (setting [9]) is “significantly heavier spleens”. In assay [3], the Neutrophils result is given as “significantly more” and the “peripheral total white blood cells” value is listed as “significantly more”. In addition, in assay [3] (Ex 38: day 7 after CP, guanosine 5, acyl derivatives 2.5 μmoles/mouse/day in 0.2% Tween 80 i.p. 6 days, Tween 80 0.2%), the spleen weight result is “No significant difference”. Further, in assay [4], the “induced maturation into functional neutrophils” value is “prevented”.

For `OC[C@H]1O[C@@H](n2cnc3c(O)ncnc32)[C@H](O)[C@@H]1O` [inosine, reference compound], the “induced maturation into functional neutrophils” value in assay [4] is reported as “no effect”.

Take “Palmitoyl-2′-Deoxyguanosine [palmitoyldeoxyguanosine]”: the total neutrophil counts entry in assay [2] (setting [10]) was “significantly elevated”; in assay [2] (setting [11]) it was “significantly elevated”; in assay [2] (setting [12]), “significantly elevated”; in assay [2] (setting [13]), “significantly elevated”; in assay [2] (Ex 54: days 5 and 7 after CP, all 6 doses 0.04-0.8 μmoles/mouse), “significantly elevated”; in assay [5] (days 5, 7 and 10 after CP, 10 μmoles/rat), “significantly elevated”. Moreover, the total neutrophil counts result in assay [6] (setting [14]) and in assay [6] (setting [15]) was “significantly higher” each time. Besides, the “white blood cell counts” value was “significantly elevated” in assay [2] (setting [10]); “significantly elevated” in assay [2] (setting [11]); “significantly elevated” in assay [2] (setting [12]); “significantly elevated” in assay [2] (setting [13]); “significantly elevated” in assay [2] (Ex 54: day 5 after CP, doses of 0.4 μmoles/mouse or greater); “statistically significant differences” in assay [2] (Ex 54: day 7 after CP, all doses 0.04-0.8 μmoles/mouse). Further, the “white blood cell counts” value in assay [5] (days 5, 7 and 10 after CP 40 mg/kg, 10 μmoles/rat i.p. daily) is given as “significantly elevated”. Also, the spleen weight result in assay [2] (Ex 51: day 5 after CP, 2 μmoles/mouse i.p. daily, vs Tween-80) was “significantly elevated”; in assay [2] (Ex 52: days 5 and 7 after CP, 0.2, 0.4, 1.0, 2.0 μmoles/mouse, except 0.2 on day 5), “significantly elevated”; in assay [2] (setting [12]), “significantly elevated”; in assay [2] (setting [13]) it was “significantly elevated”; in assay [2] (Ex 54: day 5 after CP, doses of 0.2 μmoles/mouse or greater) it was “significantly elevated”; in assay [2] (Ex 54: day 7 after CP, all doses except 0.04 μmoles/mouse), “significantly elevated”. Besides, the spleen weight entry is recorded as “significantly elevated” in assay [5] (day 10 after CP, 10 μmoles/rat); “significantly higher” in assay [6] (Ex 57: day 8 after 5-FU, pretreatment 1 μmole/mouse); “significantly elevated” in assay [7] (2.6 μmoles/mouse i.p. daily 4 days). Moreover, the “potency in elevating spleen weight and cell counts vs palmitoylguanosine” value in assay [2] (Ex 53: vs the same or a 2-fold greater dose of palmitoylguanosine) is “more potent”. In addition, the Lymphocytes result in assay [5] (day 10 after CP, 10 μmoles/rat) is recorded as “significantly elevated”. In addition, the Platelets entry in assay [5] (day 10 after CP, 10 μmoles/rat) is “significantly elevated”. Further, the platelet counts result in assay [6] (Ex 57: day 5 after 5-FU, pretreatment 1 μmole/mouse i.p. daily 3 days) is given as “significantly elevated”; in assay [6] (setting [14]), “significantly higher”; in assay [6] (setting [15]) it was “significantly higher”. The lymphocyte counts entry in assay [6] (setting [15]) was “significantly higher”. Besides, in assay [6] (setting [15]), the spleen weights entry is “significantly higher”. The “total white blood cell counts” value in assay [6] (setting [15]) was “significantly higher”. For the same compound, in assay [7] (2.6 μmoles/mouse daily 4 days), the “number of myelocytes (femoral bone marrow)” value was “significantly greater”.

With polyadenosine monophosphate, the leukocyte formation entry in assay [8] was “failed to stimulate”.
